Results on 16 compounds are retold here after patent US11390591B2, “2,4,6-trisubstituted s-triazine compound, preparation method therefor, and use thereof” (Aluda Pharmaceuticals, Inc., priority 2016, dated 2022).

Molecules are shown by their SMILES. Like-named read-outs stand apart in the source and are kept apart here.

Holding throughout (assay type): cell-based
One assay deals with human glioma U87 cells. In words: Tumor cell vacuolization (methuosis) scoring, U87. The arrangement: key to Vacuolation Score: 5 scores were given when obvious vacuolization occurred at 10 nM; 4 scores at 31.6 nM; 3 scores at 100 nM; 2 scores at 316 nM; 1 score at 1000 nM; 0 score was given if no vacuolation occurred at any concentration. As to conditions: U87 cells, 0.01-3.160 μM, 96 hours, microscope. Here is the method:
FIG. 2. Vacuolization of tumor cells. 100 microliter culture medium (RPMI1640, 2 mmol glutamine, 10% fetal bovine serum) containing 10^3 human colon adenocarcinoma cells (HCT15) or human brain glioma cells (U87) and a solvent DMSO control or 100 nM #40 compound (L16) was plated into a 96-well cell culture plate, and cell morphological image was taken under a phase contrast microscope after cultured at 5% CO2 and 37° C. for 96 hours.
Some cells gradually became round and eventually bursted. These changes are consistent with the features of cell death by methuosis (FIG. 2).
In order to compare the ability of different compounds to cause cell vacuolization, 100 μL culture media (RPMI1640, 2 mmol glutamine, 10% fetal bovine serum) comprising 10^3 human glioma U87 cells and final concentrations of 0.01, 0.0316, 0.1, 0.316, 1.0, 3.160 μM respectively of the compounds to be tested were inoculated into a 96-well culture plate. After cultured at 5% CO2 and 37° C. for 96 hours, cell morphology was observed under a high-magnification microscope, and the ability of the compounds to cause cell vacuolization was scored. 5 scores were given when obvious vacuolization occurred at 10 nM, 4 scores at 31.6 nM, 3 scores at 100 nM, 2 scores at 316 nM, 1 score at 1000 nM, and 0 score was given if no vacuolation occurred at any concentration.

Assay [1] relates to cell lines of human brain glioma (U87). In words: In vitro antineoplastic activity, MTT experiment, U87. Here is the method: (§1) MTT, RPM1640 culture medium, fetal bovine serum, 96-well plate, CO2 thermostatic incubator, American BIO-RAD680 microplate reader, cell lines of human non-small cell lung cancer (H522), and cell lines of human brain glioma (U87) were all obtained commercially.
(§2) (1) Cell inoculation: A single cell suspension was prepared with culture media supplemented with 10% fetal bovine serum, plated into a 96-well plate with 5000 cells per well, each well having a volume of 100 μL, and cultured overnight.
(§3) (2) Preparation of compound solutions: a DMSO stock solution of a compound was diluted on a sterile bench with a culture medium into 5 concentrations to be tested, wherein a double dilution was employed between two adjacent concentrations.
(§4) (3) The compound solutions of various concentrations were added into the 96-well plate cultured overnight, with 100 μL added per well, triplicated wells for each concentration. Since the peripheral wells can have edge effect and are susceptible to contamination, no cells or compounds were added thereto; instead, 100 μL culture solution was added as a blank. Additionally, 100% wells were set to contain the cells and 100 μL culture media without any compound. The plates were incubated in a thermostatic incubator at 37° C. for 48 hours.
(§5) (4) Staining: 10 μL MTT solution (5 mg/mL, prepared with PBS) was added into the 96-well plate for staining. After incubation for 4 hours, centrifugation was performed at 2500 rpm for 10 minutes. Then, a multiple pipette was used to suck the culture solution out of the wells carefully without sucking out the cells while the pipette tip faced downward. 150 μL DMSO was added and shaken on a shaker for 5-10 minutes. Crystals were allowed to dissolve fully, and an OD value for each well was measured using the microplate reader at 570 nm. The inhibition rate was calculated as follows: Inhibition rate (%)=(average OD value of 100% wells−average OD value of compound wells)/(average OD value of 100% wells−average OD value of blank wells)×100%

The subject of assay [2] is cell lines of human non-small cell lung cancer (H522). Nature of the assay: In vitro antineoplastic activity, MTT experiment, H522. As to conditions: H522 cells, 48 hours, highest concentration tested 31.6 μM (>30: inhibition rate <50%). Here is the method: as §1, §2, §3, §4, §5
[3] abbreviates: U87 cells, MTT, 48 hours, highest concentration tested 31.6 μM, read-out: IC50(μM) U87.
The mark [4] stands for this setting: ability to inhibit cell proliferation, U87 (FIG. 3), unit inferred, read-out: IC50.

Regarding `CN1CCN(c2nc(/C=C/c3cccc([N+](=O)[O-])c3)nc(Nc3cccc(NC(=O)Nc4ccc(Cl)cc4)c3)n2)CC1` [L28, (E)-1-(4-chlorophenyl)-3-(3-(4-(4-methylpiperazin-1-yl)-6-(3-nitrostyrenyl)-1,3,5-triazinyl-2-amino)phenyl)urea], the “Vacuolation Score” value with human glioma U87 cells worked out at 0. For the same compound, the values for the IC50 in assay [1] (setting [3]), in assay [1] (setting [4]) and in assay [2] were 1.49 ± 0.22 µM, 1.5 µM and 1.53 ± 0.22 µM, respectively.

Turning to `O=C(Nc1ccc(Cl)cc1)Nc1ccc(Nc2nc(/C=C/c3cccc([N+](=O)[O-])c3)nc(N3CC(O)C3)n2)cc1` [L22, (E)-1-(4-chlorophenyl)-3-(4-(4-(3-hydroxyazetidin-1-yl)-6-(3-nitrostyrenyl)-1,3,5-triazinyl-2-amino)phenyl)urea], the “Vacuolation Score” value in the assay on human glioma U87 cells is on record as 0. Besides, the IC50 (commonly the concentration needed to halve the response being measured) in assay [1] (setting [3]) is 1.32 ± 0.22 µM; in assay [1] (setting [4]) it was 1.33 µM; in assay [2] it was 1.27 ± 0.08 µM.

`O=C(Nc1ccc(F)cc1)Nc1ccc(Nc2nc(/C=C/c3ccc(Cl)cc3)nc(N3CCOCC3)n2)cc1` [L11, (E)-1-(4-fluorophenyl)-3-(4-(4-(morpholin-1-yl)-6-(4-chlorostyrenyl)-1,3,5-triazinyl-2-amino)phenyl)urea]: in the assay with human glioma U87 cells, the “Vacuolation Score” value is 2 (2 scores at 316 nM). For the same compound, the concentration for half-maximal inhibition (IC50) in assay [1] (setting [3]) is 2.5 ± 0.08 µM; in assay [1] (setting [4]) it was 2.5 µM; in assay [2] it was 0.3 ± 0.03 µM.

Turning to `CN1CCN(C(=O)c2ccc(NC(=O)Nc3ccc(Nc4nc(/C=C/c5ccccc5)nc(N5CCOCC5)n4)cc3)cc2)CC1` [L31, (E)-1-(4-((4-methylpiperazin-1-yl)formyl)phenyl)-3-(4-(4-(morpholin-1-yl)-6-styrenyl-1,3,5-triazinyl-2-amino)phenyl)urea], in the assay with human glioma U87 cells, the “Vacuolation Score” value was 2.5. In addition, the figures for the IC50 in assay [1] (setting [3]), in assay [1] (setting [4]) and in assay [2] were 0.23 ± 0.01 µM, 0.22 µM and 1.05 ± 0.04 µM, respectively.

In the case of `CN1CCN(c2nc(/C=C/c3cccc([N+](=O)[O-])c3)nc(Nc3ccc(NC(=O)Nc4ccc(F)cc4)cc3)n2)CC1` [L19, (E)-1-(4-fluorophenyl)-3-(4-(4-(4-methylpiperazin-1-yl)-6-(3-nitrostyrenyl)-1,3,5-triazinyl-2-amino)phenyl)urea], the “Vacuolation Score” value in the assay with human glioma U87 cells is reported as 0. Moreover, the IC50 in assay [1] (setting [3]) came out at 1.62 ± 0.09 µM; in assay [1] (setting [4]) it was 1.8 µM; in assay [2], 1.34 ± 0.22 µM.

On to `O=C(Nc1ccc(Cl)cc1)Nc1ccc(Nc2nc(/C=C/c3cccc([N+](=O)[O-])c3)nc(N3CCCC3)n2)cc1` [L21, (E)-1-(4-chlorophenyl)-3-(4-(4-(pyrrolidin-1-yl)-6-(3-nitrostyrenyl)-1,3,5-triazinyl-2-amino)phenyl)urea], for which the “Vacuolation Score” value with human glioma U87 cells came out at 0. Moreover, the half-maximal inhibitory concentration (IC50) in assay [1] (setting [3]) was found to be 4.47 ± 0.39 µM; in assay [1] (setting [4]), 4.47 µM; in assay [2], 7.3 ± 0.75 µM.

Take `O=C(Nc1ccc(Nc2nc(/C=C/c3ccccc3)nc(N3CCOCC3)n2)cc1)Nc1ccc(C(=O)NCCN2CCCC2)cc1` [L35, (E)-N-(2-(pyrrolidin-1-yl)ethyl)-4-(3-(4-(4-(morpholin-1-yl)-6-styrenyl-1,3,5-triazinyl-2-amino)phenyl)urea)benzamide]: the “Vacuolation Score” value in the assay with human glioma U87 cells is 1 (1 score at 1000 nM). For the same compound, the IC50 in assay [1] (setting [3]) turned out to be 1.43 ± 0.1 µM; in assay [1] (setting [4]) it was 2.1 µM; in assay [2], 4.14 ± 0.13 µM.

Take `CN1CCN(c2nc(/C=C/c3cccc(Cl)c3)nc(Nc3cccc(NC(=O)Nc4ccc(Cl)cc4)c3)n2)CC1` [L26, (E)-1-(4-chlorophenyl)-3-(3-(4-(4-methylpiperazin-1-yl)-6-(3-chlorostyrenyl)-1,3,5-triazinyl-2-amino)phenyl)urea]: the “Vacuolation Score” value in the assay with human glioma U87 cells worked out at 0. In addition, the values for the IC50 in assay [1] (setting [3]), in assay [1] (setting [4]) and in assay [2] were 3.95 ± 0.67 µM, 3.94 µM and 5.48 ± 0.76 µM, respectively.

Consider `CC1CCN(C(=O)c2ccc(NC(=O)Nc3ccc(Nc4nc(/C=C/c5ccccc5)nc(N5CCOCC5)n4)cc3)cc2)CC1` [L30, (E)-1-(4-((4-methylpiperidin-1-yl)formyl)phenyl)-3-(4-(4-(morpholin-1-yl)-6-styrenyl-1,3,5-triazinyl-2-amino)phenyl)urea], for which, in the assay with human glioma U87 cells, the “Vacuolation Score” value is recorded as 0. The 50% inhibitory concentration (IC50) in assay [1] (setting [3]) came to 0.87 ± 0.08 µM; in assay [1] (setting [4]) it was 0.9 µM; in assay [2], 5.24 ± 1.33 µM.

In the case of `CN1CCN(c2nc(/C=C/c3ccc(Cl)cc3)nc(Nc3ccc(NC(=O)Nc4ccc(F)cc4)cc3)n2)CC1` [L14, (E)-1-(4-fluorophenyl)-3-(4-(4-(4-methylpiperazin-1-yl)-6-(4-chlorostyrenyl)-1,3,5-triazinyl-2-amino)phenyl)urea], the “Vacuolation Score” value in the assay with human glioma U87 cells is 0. The IC50 in assay [1] (setting [3]) came to 2.48 ± 0.11 µM; in assay [1] (setting [4]), 2.48 µM; in assay [2], 5.03 ± 0.49 µM.

Turning to `CN1CCN(c2nc(/C=C/c3ccccc3)nc(Nc3ccc(NC(=O)Nc4ccc(F)cc4)cc3)n2)CC1` [L4, (E)-1-(4-fluorophenyl)-3-(4-(4-(4-methylpiperazin-1-yl)-6-styrenyl-1,3,5-triazinyl-2-amino)phenyl)urea], the “Vacuolation Score” value in the assay on human glioma U87 cells was found to be 0. Besides, the 50% inhibitory concentration (IC50) in assay [1] (setting [3]) was 1.19 ± 0.07 µM; in assay [1] (setting [4]), 1.19 µM; in assay [2], 1.92 ± 0.19 µM.

As for `O=C(Nc1ccc(Nc2nc(/C=C/c3ccccc3)nc(N3CCOCC3)n2)cc1)Nc1ccc(C(=O)NCCN2CCCCC2)cc1` [L36, (E)-N-(2-(piperidin-1-yl)ethyl)-4-(3-(4-(4-(morpholin-1-yl)-6-styrenyl-1,3,5-triazinyl-2-amino)phenyl)urea)benzamide], in the assay on human glioma U87 cells, the “Vacuolation Score” value is given as 1 (1 score at 1000 nM). Moreover, the 50% inhibitory concentration (IC50) in assay [1] (setting [3]) came to 1.11 ± 0.06 µM; in assay [1] (setting [4]), 1.25 µM; in assay [2] it was 3.69 ± 0.44 µM.

As for `CN(C)CCCNC(=O)c1ccc(NC(=O)Nc2ccc(Nc3nc(/C=C/c4ccccc4)nc(N4CCOCC4)n3)cc2)cc1` [L34, (E)-N-(3-(dimethylamino)propyl)-4-(3-(4-(4-(morpholin-1-yl)-6-styrenyl-1,3,5-triazinyl-2-amino)phenyl)urea)benzamide], in the assay with human glioma U87 cells, the “Vacuolation Score” value was determined as 3.5. The IC50 in assay [1] (setting [3]) came to 2.31 ± 0.29 µM; in assay [1] (setting [4]), 3 µM; in assay [2], 4.91 ± 0.1 µM.

`CN(C)C(=O)c1ccc(NC(=O)Nc2ccc(Nc3nc(/C=C/c4ccccc4)nc(N4CCOCC4)n3)cc2)cc1` [L29, (E)-N,N-dimethyl-4-(3-(4-(4-(morpholin-1-yl)-6-styrenyl-1,3,5-triazinyl-2-amino)phenyl)urea)benzamide]: in the assay on human glioma U87 cells, the “Vacuolation Score” value was determined as 3.5. Moreover, the values for the IC50 in assay [1] (setting [3]), in assay [1] (setting [4]) and in assay [2] were 0.53 ± 0.02 µM, 0.75 µM and 6.51 ± 0.94 µM, respectively.

Consider `O=C(Nc1ccc(F)cc1)Nc1ccc(Nc2nc(/C=C/c3cccc([N+](=O)[O-])c3)nc(N3CCOCC3)n2)cc1` [L17, (E)-1-(4-fluorophenyl)-3-(4-(4-(morpholin-1-yl)-6-(3-nitrostyrenyl)-1,3,5-triazinyl-2-amino)phenyl)urea], for which the “Vacuolation Score” value with human glioma U87 cells turned out to be 3.5. For the same compound, the IC50 in assay [1] (setting [3]) was 1.11 ± 0.1 µM; in assay [1] (setting [4]), 1.19 µM; in assay [2], above 30 µM.

Turning to `O=C(Nc1ccc(Cl)cc1)Nc1cccc(Nc2nc(/C=C/c3cccc(Cl)c3)nc(N3CCOCC3)n2)c1` [L25, (E)-1-(4-chlorophenyl)-3-(3-(4-(morpholin-1-yl)-6-(3-chlorostyrenyl)-1,3,5-triazinyl-2-amino)phenyl)urea], the “Vacuolation Score” value in the assay on human glioma U87 cells is given as 0. The results for the IC50 in assay [1] (setting [3]), in assay [1] (setting [4]) and in assay [2] were 2.2 ± 0.21 µM, 2.2 µM and 2.53 ± 0.28 µM, respectively.
